Assay results taken from patent US12054494B2, “Compound with anticancer activity” (KYOWA KIRIN CO., LTD., priority 2018, dated 2024).

Tested on: MYC mRNA expression in SU-DHL-4 cells
Assay: Suppressive effect on MYC mRNA expression (qRT-PCR)
Assay type: cell-based
Settings: test compound 100 nmol/L, 6 hours
Experimental: Suppressive Effect on MYC mRNA Expression
SU-DHL-4 cells were cultured at 37° C. using a carbon dioxide gas incubator (95% air, 5% CO2) in RPMI1640 medium in which FBS in an amount to give a final concentration of 10 vol % and PS in an amount to give a final concentration of 1 vol % were added. The cells were passaged twice a week at a volume of 20-40 mL so as to maintain a cell concentration of 1×10^6 cells/mL or less.
The cultured SU-DHL-4 cells were seeded at 6×10^5 cells/well in a transparent 6-well plate (Code No. 140675, Thermo Fisher Scientific). After seeding, the cells were precultured at 37° C. in a carbon dioxide gas incubator for 18 to 25 hours. Next, a 0.1 mmol/L DMSO solution of the test compound was prepared, diluted so that the concentration will be 200 times the final concentration in the RPMI1640 medium containing the above FBS and PS, and 1/200 volume of the diluted solution was added to each well. At this time, the final concentration of DMSO was adjusted to be 0.1 vol %. After adding the test compound, the cells were cultured at 37° C. in a carbon dioxide gas incubator for 6 hours.
Then, the cells were collected by centrifugation and used for extraction of mRNA. mRNA extraction from cells was performed using Maxwell® 16 LEV simplyRNA Purification Kits (Code No. AS1270, Promega). The mRNA recovery protocol was performed according to the manufacturer's recommended protocol attached to the kit.
0.001 mg of the recovered mRNA was converted to cDNA by SuperScript IV VILO Master Mix with ezDNase Enzyme (Code No. 11766050, Thermo Fisher Scientific). The cDNA conversion was performed, according to the manufacturer's recommended protocol attached to the kit, in 0.020 mL of the reaction solution, and GeneAmp® PCR System 9700 (Applied Biosystems) was used. The cDNA-converted sample was diluted 10-fold by adding 0.180 mL of RNase Free Water (Code No. 10977-023, Thermo Fisher Scientific) and used for quantitative real-time polymerase chain reaction (qRT-PCR). For the calibration curve of qRT-PCR, 0.08 mL of RNase Free Water was added to a cDNA sample using DMSO as a test compound for 5-fold dilution. Further, two 5-fold dilutions were prepared stepwise, and these three samples were used as the calibration curve samples.
The following reagents were used for qRT-PCR: TaqMan Gene Expression Assays, Inventoried (Primer probe: Code No. 4331182, Thermo Fisher Scientific, Assay ID: (i) MYC: Hs00153408_m1, (ii) ACTB: Hs01060665_g1, (iii) GAPDH: Hs04420697_g1, (iv) HPRT1: Hs02800695_m1); 2X TaqManR Fast Universal PCR Master Mix, no AmpEraseR UNG (Master Mix: Code No. 4367846, Thermo Fisher Scientific).
Primer probe (0.001 mL), Master Mix (0.010 mL), water (0.004 mL) and the diluted cDNA sample (0.005 mL) were mixed, and qRT-PCR analysis was performed. For qRT-PCR analysis, QuantStudio 7 Flex (Thermo Fisher Scientific) or 7500 Fast Real-Time PCR (Applied Biosystems) was used to measure in Fast mode and analyze. The expression level of the MYC gene was determined by quantifying ACTB, GAPDH, and HPRT1 as housekeeping genes and correcting by the following formula to calculate the suppression rate of (%) of MYC mRNA expression when the test compound was allowed to act at a concentration of 100 nmol/L. Corrected MYC expression=A/B • A: MYC expression level • B: Geometric mean of expression levels of ACTB, GAPDH and HPRT1
Using the corrected values, the suppression rate of MYC expression for the wells to which […] was calculated by the following formula. Suppression rate of MYC expression (%)=100−C/D×100 • C: Corrected MYC expression level in a well containing test compound • D: Corrected MYC expression level in a well to which test compound was not added

Structure (SMILES) | Suppression rate of MYC mRNA expression [%]
CCC(=O)N1c2ccccc2[C@H](Nc2ccc(NC(=O)CCCC(=O)Nc3ccc(Cn4c(C(=O)OCCN(C)C)cc5c4CCCC5=O)cc3)cc2)C[C@@H]1C [Compound 15a, 2-(Dimethylamino)ethyl 1-(4-(5-((4-(((2S,4R)-2-methyl-1-propionyl-1,2,3,4-tetrahydroquinolin-4-yl)amino)phenyl)amino)-5-oxopentanamide)benzyl)-4-oxo-4,5,6,7-tetrahydro-1H-indole-2-carboxylate] | 97.6
CCC(=O)N1c2ccccc2[C@H](Nc2ccc(CCC(=O)NCC3(NC4CCC(N[C@@H]5C[C@H](C)N(C(=O)CC)c6ccccc65)CC4)COC3)cc2)C[C@@H]1C (stereo partly drawn) [Compound 7h] | 97.5
CCC(=O)N1c2ccccc2[C@H](N[C@H]2CC[C@H](NC(=O)C#CCNC(=O)[C@H]3CC[C@H](N[C@@H]4C[C@H](C)N(C(=O)CC)c5ccccc54)CC3)CC2)C[C@@H]1C (relative stereo) [Compound 9d, (1R,4R)-4-(((2S*,4R*)-2-Methyl-1-propionyl-1,2,3,4-tetrahydroquinolin-4-yl)amino)-N-(4-(((1R,4R)-4-(((2S,4R)-2-methyl-1-propionyl-1,2,3,4-tetrahydroquinolin-4-yl)amino)cyclohexyl)amino)-4-oxobut-2-yn-1-yl)cyclohexane-1-carboxamide] | 98.0
CCC(=O)N1c2ccccc2[C@H](Nc2ccc(C(=O)N3CC(C(=O)N[C@H]4CC[C@H](N[C@@H]5C[C@H](C)N(C(=O)CC)c6ccccc65)CC4)C3)cc2)C[C@@H]1C [Compound 8r, 1-(4-(((2S,4R)-2-Methyl-1-propionyl-1,2,3,4-tetrahydroquinolin-4-yl)amino)benzoyl)-N-((1R,4R)-4-(((2S,4R)-2-methyl-1-propionyl-1,2,3,4-tetrahydroquinolin-4-yl)amino)cyclohexyl)azetidine-3-carboxamide] | 96.7
CCC(=O)N1c2ccccc2[C@H](Nc2ccc(NC(=O)N3CCN(C(=O)C4CCC(N[C@@H]5C[C@H](C)N(C(=O)CC)c6ccccc65)CC4)CC3)cc2)C[C@@H]1C (stereo partly drawn) [Compound 7p, 4-((1R,4r)-4-(((2S,4R)-2-Methyl-1-propionyl-1,2,3,4-tetrahydroquinolin-4-yl)amino)cyclohexane-1-carbonyl)-N-(4-(((2S,4R)-2-methyl-1-propionyl-1,2,3,4-tetrahydroquinolin-4-yl)amino)phenyl)piperazine-1-carboxamide] | 97.9
CCC(=O)N1c2ccccc2[C@H](Nc2ccc(-c3nnc(CNC(=O)[C@H]4CC[C@H](N[C@@H]5C[C@H](C)N(C(=O)CC)c6ccccc65)CC4)o3)cc2)C[C@@H]1C [Compound 7q, (1R,4R)-4-(((2S,4R)-2-Methyl-1-propionyl-1,2,3,4-tetrahydroquinolin-4-yl)amino)-N-((5-(4-(((2S,4R)-2-methyl-1-propionyl-1,2,3,4-tetrahydroquinolin-4-yl)amino)phenyl)-1,3,4-oxadiazol-2-yl)methyl)cyclohexane-1-carboxamide] | 97.4
CCC(=O)N1c2ccccc2[C@H](Nc2ccc(NC(=O)CNC(=O)N[C@H]3CC[C@H](N[C@@H]4C[C@H](C)N(C(=O)CC)c5ccccc54)CC3)cc2)C[C@@H]1C [Compound 8j, 2-(3-((1R,4R)-4-(((2S,4R)-2-Methyl-1-propionyl-1,2,3,4-tetrahydroquinolin-4-yl)amino)cyclohexyl)ureido)-N-(4-(((2S,4R)-2-methyl-1-propionyl-1,2,3,4-tetrahydroquinolin-4-yl)amino)phenyl)acetamide] | 97.2
CCC(=O)N1c2ccccc2[C@H](Nc2ccc(C(=O)NCCCNC(=O)c3ccc(C4=N[C@@H](CC(=O)OCCCOC)c5nnc(C)n5-c5sc(C)c(C)c54)cc3)cc2)C[C@@H]1C [Compound 13h, 3-Methoxypropyl 2-((S)-2,3,9-trimethyl-4-(4-((3-(4-(((2S,4R)-2-methyl-1-propionyl-1,2,3,4-tetrahydroquinolin-4-yl)amino)benzamide)propyl)carbamoyl)phenyl)-6H-thieno[3,2-f][1,2,4]triazolo[4,3-a][1,4]diazepin-6-yl)acetate] | 97.4
CCC(=O)N1c2ccccc2[C@H](Nc2ccc(NC(=O)CCCC(=O)NC3CCC(N[C@@H]4C[C@H](C)N(C(=O)CC)c5ccccc54)CC3)cc2)C[C@@H]1C (stereo partly drawn) [Compound 7o, N^1-((1R,4r)-4-(((2S,4R)-2-Methyl-1-propionyl-1,2,3,4-tetrahydroquinolin-4-yl)amino)cyclohexyl)-N^5-(4-(((2S,4R)-2-methyl-1-propionyl-1,2,3,4-tetrahydroquinolin-4-yl)amino)phenyl)glutaramide] | 97.4
